The data set is described as follows: recombinant UMI read abundance after kanamycin selection (control-corrected) (log10(CPM+1)); higher = more efficient recombination; extreme values may be limits of the assay; sequences stand for … in AGTGCAGAGAAAATCGGCCAGTTTTCTCTGCCTGCAGTCCGCATGCCGTGGGACCCCTTGGGTTCTAACCTGTTGCCTAGATTTATGCAGCGGACTGCCTTTCTCCCAAAGTGATAAACCGG…AGGTTGGTTTCACT; site = the 11-nt donor. The essentials:
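In a pooled Escherichia coli screen for the IS621 bridge recombinase, donor and donor-binding-loop pairs were each placed with a 12-nt UMI on a plasmid bearing a promoterless kanamycin gene. This library was co-electroporated with a target plasmid encoding a fixed target and T7-inducible recombinase, and cells were plated either on IPTG (0.07 mM) plus kanamycin or without selection, in two replicates each. Recombinant UMIs were PCR-amplified across the donor–target junction and sequenced, and counts were converted to CPM, averaged over replicates, scaled by control-derived factors and reported as log10(CPM+1).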
With “TAGCCTTCATGGACCGGTTTTCCCGGTAATCCGTATTTGGT (site TATCCTTCTAC)”, the “recombinant UMI read abundance (log10)” value came out at 0.379. The same measure for “TAGCCTTCATGGACCGGTTTTCCCGGTAATCCGTATTTGGT (site TCGCCTTCTAC)”: 0.0137; for “TAGCCTTCATGGACCGGTTTTCCCGGTAATCCGTATTTGGT (site TGGCCTTCTAC)”: 0.

“TAGCCTTCATGGACCGGTTTTCCCGGTAATCCGTATTTGGT (site TTGCCTTCTAC)”: the “recombinant UMI read abundance (log10)” value was found to be 0.0116. Under “TAGCGAGCATGGACCGGTTTTCCCGGTAATCCGTATTTGTC (site TAGCGAGCTGA)” stands 2.41; under “TAGCGCTCATGGACCGGTTTTCCCGGTAATCCGTATTTGCA (site TAGCGCTCTTG)”, 2.33; under “TAGCGTTCATGGACCGGTTTTCCCGGTAATCCGTATTTGGT (site TAGCATTCTAC)”, 0.538. As to “TAGCGTTCATGGACCGGTTTTCCCGGTAATCCGTATTTGGT (site TAGCCTTCTAC)”, the “recombinant UMI read abundance (log10)” value was found to be 0.00546.

On to “TAGCGTTCATGGACCGGTTTTCCCGGTAATCCGTATTTGGT (site TAGCGTTCTAC)”, for which the “recombinant UMI read abundance (log10)” value was 1.12. Under “TAGCGTTCATGGACCGGTTTTCCCGGTAATCCGTATTTGGT (site TAGCTTTCTAC)” stands 0. “TAGCTAGCATGGACCGGTTTTCCCGGTAATCCGTATTTGAT (site TAGCTAGCTAT)”: the “recombinant UMI read abundance (log10)” value worked out at 1.59. For “TAGCTAGCATGGACCGGTTTTCCCGGTAATCCGTATTTGAT (site TAGCTAGCTCT)”, the “recombinant UMI read abundance (log10)” value came to 0.0164.

Take “TAGCTAGCATGGACCGGTTTTCCCGGTAATCCGTATTTGAT (site TAGCTAGCTGT)”: the “recombinant UMI read abundance (log10)” value amounted to 0. Turning to “TAGCTAGCATGGACCGGTTTTCCCGGTAATCCGTATTTGAT (site TAGCTAGCTTT)”, the “recombinant UMI read abundance (log10)” value is 0.0212. “TAGCTAGCATGGACCGGTTTTCCCGGTAATCCGTATTTGCA (site TAGCTAGCTTA)”: the “recombinant UMI read abundance (log10)” value was determined as 0.178. In the case of “TAGCTAGCATGGACCGGTTTTCCCGGTAATCCGTATTTGCA (site TAGCTAGCTTC)”, the “recombinant UMI read abundance (log10)” value came out at 0.00756. “TAGCTAGCATGGACCGGTTTTCCCGGTAATCCGTATTTGCA (site TAGCTAGCTTG)”: the “recombinant UMI read abundance (log10)” value stood at 1.01. Take “TAGCTAGCATGGACCGGTTTTCCCGGTAATCCGTATTTGCA (site TAGCTAGCTTT)”: the “recombinant UMI read abundance (log10)” value was 0.0133. In the case of “TAGCTAGCATGGACCGGTTTTCCCGGTAATCCGTATTTGTA (site TAGCTAGCTTA)”, the “recombinant UMI read abundance (log10)” value amounted to 1.62. For the sequence “TAGCTAGCATGGACCGGTTTTCCCGGTAATCCGTATTTGTA (site TAGCTAGCTTC)”, the “recombinant UMI read abundance (log10)” value was 0.0102.

Turning to “TAGCTAGCATGGACCGGTTTTCCCGGTAATCCGTATTTGTA (site TAGCTAGCTTG)”, the “recombinant UMI read abundance (log10)” value was 0.789. For “TAGCTAGCATGGACCGGTTTTCCCGGTAATCCGTATTTGTA (site TAGCTAGCTTT)”, the “recombinant UMI read abundance (log10)” value turned out to be 0.235.

Consider “TAGCTCTCATGGACCGGTTTTCCCGGTAATCCGTATTTGGG (site TAGCTCTCTCC)”, for which the “recombinant UMI read abundance (log10)” value was 0.00931.

For the sequence “TAGGAATCATGGACCGGTTTTCCCGGTAATCCGTATTTGAG (site TAGGAATCTCA)”, the “recombinant UMI read abundance (log10)” value worked out at 2.32. As for “TAGGAATCATGGACCGGTTTTCCCGGTAATCCGTATTTGAG (site TAGGAATCTCC)”, the “recombinant UMI read abundance (log10)” value turned out to be 1.84.

Turning to “TAGGAATCATGGACCGGTTTTCCCGGTAATCCGTATTTGAG (site TAGGAATCTCG)”, the “recombinant UMI read abundance (log10)” value was determined as 1.36. Regarding “TAGGAATCATGGACCGGTTTTCCCGGTAATCCGTATTTGAG (site TAGGAATCTCT)”, the “recombinant UMI read abundance (log10)” value turned out to be 3.1.

Turning to “TAGGAATCATGGACCGGTTTTCCCGGTAATCCGTATTTGCG (site AAGGAATCTCG)”, the “recombinant UMI read abundance (log10)” value stood at 2.07. Regarding “TAGGAATCATGGACCGGTTTTCCCGGTAATCCGTATTTGCG (site CAGGAATCTCG)”, the “recombinant UMI read abundance (log10)” value worked out at 2.3. “TAGGAATCATGGACCGGTTTTCCCGGTAATCCGTATTTGCG (site GAGGAATCTCG)”: the “recombinant UMI read abundance (log10)” value amounted to 0. With “TAGGAATCATGGACCGGTTTTCCCGGTAATCCGTATTTGCG (site TAAGAATCTCG)”, the “recombinant UMI read abundance (log10)” value was found to be 2.05.

Regarding “TAGGAATCATGGACCGGTTTTCCCGGTAATCCGTATTTGCG (site TACGAATCTCG)”, the “recombinant UMI read abundance (log10)” value was 1.28. As to “TAGGAATCATGGACCGGTTTTCCCGGTAATCCGTATTTGCG (site TAGAAATCTCG)”, the “recombinant UMI read abundance (log10)” value amounted to 2.39. Under “TAGGAATCATGGACCGGTTTTCCCGGTAATCCGTATTTGCG (site TAGCAATCTCG)” stands 1.05; under “TAGGAATCATGGACCGGTTTTCCCGGTAATCCGTATTTGCG (site TAGGAAACTCG)”, 1.27; under “TAGGAATCATGGACCGGTTTTCCCGGTAATCCGTATTTGCG (site TAGGAACCTCG)”, 0. Regarding “TAGGAATCATGGACCGGTTTTCCCGGTAATCCGTATTTGCG (site TAGGAAGCTCG)”, the “recombinant UMI read abundance (log10)” value was determined as 0.419.

Turning to “TAGGAATCATGGACCGGTTTTCCCGGTAATCCGTATTTGCG (site TAGGAATCTAG)”, the “recombinant UMI read abundance (log10)” value was 1.42. In the case of “TAGGAATCATGGACCGGTTTTCCCGGTAATCCGTATTTGCG (site TAGGAATCTCA)”, the “recombinant UMI read abundance (log10)” value is 2.6. Regarding “TAGGAATCATGGACCGGTTTTCCCGGTAATCCGTATTTGCG (site TAGGAATCTCC)”, the “recombinant UMI read abundance (log10)” value was 1.39. Consider “TAGGAATCATGGACCGGTTTTCCCGGTAATCCGTATTTGCG (site TAGGAATCTCG)”, for which the “recombinant UMI read abundance (log10)” value was found to be 2.72. Take “TAGGAATCATGGACCGGTTTTCCCGGTAATCCGTATTTGCG (site TAGGAATCTCT)”: the “recombinant UMI read abundance (log10)” value amounted to 2.03. In the case of “TAGGAATCATGGACCGGTTTTCCCGGTAATCCGTATTTGCG (site TAGGAATCTGG)”, the “recombinant UMI read abundance (log10)” value was 2.08. Under “TAGGAATCATGGACCGGTTTTCCCGGTAATCCGTATTTGCG (site TAGGAATCTTG)” stands 1.85; under “TAGGAATCATGGACCGGTTTTCCCGGTAATCCGTATTTGCG (site TAGGACTCTCG)”, 0.892; under “TAGGAATCATGGACCGGTTTTCCCGGTAATCCGTATTTGCG (site TAGGAGTCTCG)”, 1.94.

Take “TAGGAATCATGGACCGGTTTTCCCGGTAATCCGTATTTGCG (site TAGGATTCTCG)”: the “recombinant UMI read abundance (log10)” value turned out to be 1.39. The same measure for “TAGGAATCATGGACCGGTTTTCCCGGTAATCCGTATTTGCG (site TAGGCATCTCG)”: 1.14.

Regarding “TAGGAATCATGGACCGGTTTTCCCGGTAATCCGTATTTGCG (site TAGGGATCTCG)”, the “recombinant UMI read abundance (log10)” value is 1.43.

For the sequence “TAGGAATCATGGACCGGTTTTCCCGGTAATCCGTATTTGCG (site TAGGTATCTCG)”, the “recombinant UMI read abundance (log10)” value was found to be 1.63. In the case of “TAGGAATCATGGACCGGTTTTCCCGGTAATCCGTATTTGCG (site TAGTAATCTCG)”, the “recombinant UMI read abundance (log10)” value came to 1.71. As for “TAGGAATCATGGACCGGTTTTCCCGGTAATCCGTATTTGCG (site TATGAATCTCG)”, the “recombinant UMI read abundance (log10)” value came to 1.63. Turning to “TAGGAATCATGGACCGGTTTTCCCGGTAATCCGTATTTGCG (site TCGGAATCTCG)”, the “recombinant UMI read abundance (log10)” value came out at 1.51. On to “TAGGAATCATGGACCGGTTTTCCCGGTAATCCGTATTTGCG (site TGGGAATCTCG)”, for which the “recombinant UMI read abundance (log10)” value stood at 1.02. For “TAGGAATCATGGACCGGTTTTCCCGGTAATCCGTATTTGCG (site TTGGAATCTCG)”, the “recombinant UMI read abundance (log10)” value worked out at 1.47.

For “TAGGAATCATGGACCGGTTTTCCCGGTAATCCGTATTTGCT (site TAGGAATCTAG)”, the “recombinant UMI read abundance (log10)” value was found to be 2.58. Under “TAGGAATCATGGACCGGTTTTCCCGGTAATCCGTATTTGCT (site TAGGAATCTCG)” stands 1.1; under “TAGGAATCATGGACCGGTTTTCCCGGTAATCCGTATTTGCT (site TAGGAATCTGG)”, 2.28; under “TAGGAATCATGGACCGGTTTTCCCGGTAATCCGTATTTGCT (site TAGGAATCTTG)”, 1.5.

Regarding “TAGGATGCATGGACCGGTTTTCCCGGTAATCCGTATTTGGC (site TAGGATGCTGC)”, the “recombinant UMI read abundance (log10)” value was determined as 3.08.

For “TAGGCAACATGGACCGGTTTTCCCGGTAATCCGTATTTGAA (site TAGGCAACTTT)”, the “recombinant UMI read abundance (log10)” value was found to be 0.0147. “TAGGGACCATGGACCGGTTTTCCCGGTAATCCGTATTTGGT (site TAGGGACCTAC)”: the “recombinant UMI read abundance (log10)” value was determined as 0.00346. Take “TAGGTAACATGGACCGGTTTTCCCGGTAATCCGTATTTGAC (site TAGGTAACTGT)”: the “recombinant UMI read abundance (log10)” value amounted to 2.17. With “TAGGTGTCATGGACCGGTTTTCCCGGTAATCCGTATTTGCA (site TAGGTGTCTTG)”, the “recombinant UMI read abundance (log10)” value is 3.29. With “TAGGTTCCATGGACCGGTTTTCCCGGTAATCCGTATTTGCC (site TAGGTTCCTGG)”, the “recombinant UMI read abundance (log10)” value turned out to be 1.32. Turning to “TAGTAAGCATGGACCGGTTTTCCCGGTAATCCGTATTTGTA (site TAGTAAGCTTA)”, the “recombinant UMI read abundance (log10)” value was determined as 2.8. Turning to “TAGTACCCATGGACCGGTTTTCCCGGTAATCCGTATTTGGT (site TAGTACCCTAC)”, the “recombinant UMI read abundance (log10)” value was determined as 0.271. As for “TAGTACTCATGGACCGGTTTTCCCGGTAATCCGTATTTGCA (site TAGTACTCTTG)”, the “recombinant UMI read abundance (log10)” value is 2.61.

For the origin of these results see the supplement of paper PMC11208160.
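Also: IS621 bridge recombinase in Escherichia coli cells against a fixed T5 target plasmid.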
